Results on one compound are retold here after patent publication US20050169978A1, “Wet-micro grinding” (priority 2004, published 2005).

The series is described as follows: AmB content by high performance liquid chromatography during grinding. Format: physicochemical. Particulars: ball mill, 210 min overall grinding, HPLC.

Description: Samples were taken at a grinding time of 90 minutes, 150 minutes, and 210 minutes, and were designated as LDAB90, LDAB150, and LDAB210, respectively. All samples were stored at 2-8° C. before analyzed. The particle size ranges of the samples were measured using N4 Plus Particle Size Analyzer and the AmB content was measured using high performance liquid chromatography.

Turning to `C[C@@H]1[C@H](O)[C@@H](C)/C=C/C=C/C=C/C=C/C=C/C=C/C=C/[C@H](O[C@@H]2O[C@H](C)[C@@H](O)[C@H](N)[C@@H]2O)C[C@@H]2O[C@](O)(C[C@@H](O)C[C@@H](O)[C@H](O)CC[C@@H](O)C[C@@H](O)CC(=O)O[C@H]1C)C[C@H](O)[C@H]2C(=O)O` [AmB, amphotericin B], the “stability of AmB (AmB content) during grinding” value is listed as “remained stable during the whole period of the grinding process”.
